Measurements as given in US4782076A, “Substituted 2,3,4,9-tetrahydro-1H-carbazole-1-acetic acid derivatives, composition and use” (American Home Products Corporation, priority 1988, dated 1988).

Tests used:
[1] = system: Freund's complete adjuvant-induced hind paw edema in rats; experiment: Preventive adjuvant edema in rats (Preventative Adjuvant Edema); type: in vivo, Male Sprague Dawley rats; details: 25 mg/kg, p.o., day 0, 1 and 2; edema measured day 3
Experimental: This test is a primary screen for anti-inflammatory drugs.
Male Sprague Dawley rats (180-200 g) are used. The animals have free access to water but food is withdrawn 18 hours before testing.
Drug Preparations and Administration:
Freund's complete adjuvant is prepared by suspending 5 mg killed and dried Mycobacterium butyricum (Difco) in 1 mL liquid paraffin. The test compounds are dissolved in distilled water or suspended in 0.5% Tween 80 in distilled water according to their solubility. For primary screening all drugs are administered by gastric lavage at the arbitrary dosage of 25 mg/kg, p.o. in a volume of 0.5 mL/100 g body weight to groups of 10 animals.
The method is essentially that described by Wax et al, J. Pharmacol. Exp. Ther., 192, 166-171 (1975). Groups of rats are injected intradermally in the left hind paw with 0.1 mL of Freund's complete adjuvant. […] The injected hind paw volume is measured before the injection of adjuvant and 24 hours after the last drug administration (day 3) by means of a plethysmometer (Buxco Electronics Inc.). […]
The mean edema volume (expressed in mL±SEM) is calculated for each group and the percentage inhibition of inflammation conferred by the drug is calculated: [formula] where c is the mean edema volume for the untreated controls and t is the means edema volume for the drug treated group.

[2] = system: phenylbenzoquinone-induced writhing in mice; experiment: Phenylbenzoquinone-induced writhing in mice (Phenylquinone Writhing in Mice); type: in vivo, Male Swiss albino mice; details: 60 min before PBQ i.p.
Experimental: A further test used to determine the utility of the compounds of the present invention is designated: DRUG EFFECTS ON PHENYLBENZOQUINONE-INDUCED WRITHING IN MICE
The objective of this test is to determine the ability of test drugs to inhibit the nociceptive (pain) response of mice injected with a chemical irritant. This test is a primary screen for both peripheral and centrally acting analgesic drugs.
Male Swiss albino mice (15-25 g) are used. The animals are fasted for 18 hours prior to use but have free access to water.
(§1) Drug Preparation and Administration:
Drugs are dissolved or suspended according to their solubility in 0.5% Tween 80 in distilled water. They are administered by gastric lavage in a volume of 5 mL/kg. […]
A modification of the method of Siegmund et al, Proc. Soc. […] The number of writhing or abdominal squirming movements made by each mouse during the following 15 minute period is counted. The experiment is repeated with another group of 5 mice and the mean number of writhes per mouse for a group of 10 mice is calculated.
Drug treated and vehicle-treated control groups are compared and the percentage inhibition of writhing conferred by the drug is calculated: [formula] where c=mean number of writhes in the control group, and where t=mean number of writhes in the test drug group.

[3] = system: reaction of rats to painful stimulation applied to an inflamed paw; experiment: Paw pressure test in the rat; type: in vivo, Male Sprague Dawley rats; details: po, 24 hours after Freund's adjuvant, pain threshold 1 hour later, dose which causes analgesia in 50% of the animals
From the text: A still further test used to determine the utility of the compounds of the present invention is designated: PAW PRESSURE TEST IN THE RAT
The objective of this test is to assess the potency of peripheral and central acting drugs in inhibiting the reaction of rats to painful stimulation applied to an inflamed paw.
Male Sprague Dawley rats (180-200 g) are used. The animals are fasted overnight prior to drug administration.
as §1
Freund's Complete Adjuvant (FCA) is prepared by suspending 5 mg killed and dried Mycobacterium butyricum (Difco) in 1 mL liquid paraffin. The test compounds are dissolved or susended in 0.5% Tween 80 in distilled water according to their solubility. They are administered by gastric gavage in a volume of 0.5 mL/100 g body weight to groups of 10 animals.
Ten rats are used per group. The method is essentially that described by Randall et al, Arch. Int. Pharmacodyn. […] The force is continuously monitored by a pointer moving along a linear scale and is measured in grams. […] The pain threshold is determined 1 hour later in the inflamed paw and the normal paw of the treated and control groups. […]
Each animal which has a reading 1.5 times greater than the mean reading of the control-group will be considered as responsive to treatment. The number of animals showing an analgesic effect is then determined in each group. […]

| SMILES | % Inhibition [1] [%] | ED50 ([2]; Mus musculus, po) [mg/kg] | ED50 [3] [mg/kg] | % Inhibition ([2]; 25 mg/kg, p.o.) [%] |
| --- | --- | --- | --- | --- |
| C#CCC1CCC(CC)(CC(=O)O)c2[nH]c3c(CC)cccc3c21 (single isomer, unassigned; isomer a) [Example 1, 1,8-Diethyl-2,3,4,9-tetrahydro-4-(2-propynyl)-1H-carbazole-1-acetic Acid Isomer A] | 51 | 6.6 | 0.38 | – |
| C#CCC1CCC(CC)(CC(=O)O)c2[nH]c3c(CC)cccc3c21 (single isomer, unassigned; isomer b) [Example 2, 1,8-Diethyl-2,3,4,9-tetrahydro-4-(2-propynyl)-1H-carbazole-1-acetic Acid Isomer B] | 36 | – | – | 8 |
